Data as given in patent US9850283B2, “Macrocyclic inhibitors of the PD-1/PD-L1 and CD80(B7-1)/PD-L1 protein/protein interactions” (BRISTOL-MYERS SQUIBB COMPANY, priority 2013, dated 2017).
Positions of bridges follow the written chain, without caps; N, C: chain ends. Non-standard residues stand in square brackets, D forms with d. Residues, ends and D or L forms follow the SMILES beside them. *: point of attachment. Bta = N[C@@H](Cc1csc2ccccc12)C(=O)O; Hyp = O=C(O)[C@@H]1C[C@@H](O)CN1; NMeNle = CCCC[C@H](NC)C(=O)O; NMeS = CN[C@@H](CO)C(=O)O; NMeA = CN[C@@H](C)C(=O)O; Dap = NC[C@H](N)C(=O)O; Bn = c1ccc(C*)cc1; Sar = CNCC(=O)O

What was measured:
[1] = target: T1, LK35.2-hPD-L1 cells / PE-labeled PD-1-Ig (Homo sapiens, UniProt Q9NZQ7); test: LK35.2-hPD-L1 cell binding high-content screening assay; assay type: cell-based; details: cell binding assay, cell line not given; cluster symbol; read-out: CBA IC50 cluster
T1 construct: expressed in transfected cells; host or cells: LK35.2 mouse B cell line
T1 sequence (Q9NZQ7 19-290): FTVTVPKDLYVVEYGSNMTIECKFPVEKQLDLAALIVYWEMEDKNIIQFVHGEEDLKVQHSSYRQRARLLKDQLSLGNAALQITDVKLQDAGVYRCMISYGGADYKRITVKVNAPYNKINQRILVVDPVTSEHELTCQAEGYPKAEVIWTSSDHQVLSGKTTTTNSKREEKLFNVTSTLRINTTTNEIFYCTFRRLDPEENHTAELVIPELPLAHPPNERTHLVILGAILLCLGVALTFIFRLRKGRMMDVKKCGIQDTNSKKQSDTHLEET
Summary of the method: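 Mouse LK35.2 B cells stably over-expressing human PD-L1, cultured overnight, treated with compound plus PE-labeled human PD-1-Ig (1 nM final) in RPMI/10% FCS for 1 h at 37 °C. After washing, bound fluorescence quantified by high-content imaging.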

Human PD-L1/PD-1 = target: T2, Human PD-L1/PD-1 (Homo sapiens, UniProt Q9NZQ7); test: HTRF PD-1-Ig/PD-L1-His binding assay (human PD-L1); details: cluster symbol; read-out: HTRF IC50 cluster
T2 construct: made in house; host or cells: HEK293T
T2 sequence (Q9NZQ7 with tags, fused parts or gaps): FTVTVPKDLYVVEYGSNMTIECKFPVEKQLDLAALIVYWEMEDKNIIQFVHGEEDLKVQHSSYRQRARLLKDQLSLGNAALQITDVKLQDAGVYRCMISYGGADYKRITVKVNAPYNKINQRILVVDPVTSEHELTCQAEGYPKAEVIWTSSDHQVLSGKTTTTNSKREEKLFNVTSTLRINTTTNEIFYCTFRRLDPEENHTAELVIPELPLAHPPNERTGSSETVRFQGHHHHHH
Summary of the method: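 HTRF read-out: Eu cryptate anti-Ig mAb 1 nM final, APC anti-His mAb 20 nM final, added over the binding reaction. Proteins were PD-1-Ig and PD-L1-His ectodomain fusions. Buffer was dPBS, 0.1% BSA, 0.05% Tween-20.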

Row | Compound | IC50 [1] [nM] | IC50 (Human PD-L1/PD-1) [nM]
1 | CCCC[C@H]1C(=O)N(C)[C@@H](COCc2ccccc2)C(=O)N[C@@H](CCCNC(=N)N)C(=O)N[C@H](C(=O)NCC(N)=O)CSCC(=O)N[C@@H](Cc2ccccc2)C(=O)N(C)[C@@H](C)C(=O)N[C@@H](CC(N)=O)C(=O)N2CCC[C@H]2C(=O)N[C@@H](Cc2cnc[nH]2)C(=O)N[C@@H](CC(C)C)C(=O)N(C)CC(=O)N[C@@H](Cc2c[nH]c3ccccc23)C(=O)N[C@@H](CO)C(=O)N[C@@H](Cc2c[nH]c3ccccc23)C(=O)N1C [Example 6016] ({CH2CO}-F[NMeA]NPHL[Sar]WSW[NMeNle][NMeS](Bn)RCG-NH2; thioether N-14) | 4.78 to 72.9 | 6.76 to 30.3
2 | CCCC[C@H]1C(=O)N(C)[C@@H](CCCC)C(=O)N[C@@H](CCCNC(=N)N)C(=O)N[C@H](C(=O)NCC(=O)NCC(N)=O)CSCC(=O)N[C@@H](Cc2ccc(O)cc2)C(=O)N(C)[C@@H](C)C(=O)N[C@@H](CC(N)=O)C(=O)N2CCC[C@H]2C(=O)N[C@@H](Cc2cnc[nH]2)C(=O)N[C@@H](CC(C)C)C(=O)N2C[C@H](O)C[C@H]2C(=O)N[C@@H](Cc2c[nH]c3ccccc23)C(=O)N[C@@H](CO)C(=O)N[C@@H](Cc2c[nH]c3ccccc23)C(=O)N1C [Example 6017] ({CH2CO}-Y[NMeA]NPHL[Hyp]WSW[NMeNle][NMeNle]RCGG-NH2; thioether N-14) | 0.158 to 4.71 | 0.385 to 6.74
3 | CCCC[C@H]1C(=O)N(C)[C@@H](CCCC)C(=O)N[C@@H](CCCNC(=N)N)C(=O)N[C@H](C(=O)NCC(=O)NCC(N)=O)CSCC(=O)N[C@@H](Cc2ccc(O)cc2)C(=O)N(C)[C@@H](C)C(=O)N[C@@H](CC(N)=O)C(=O)N2CCC[C@H]2C(=O)N[C@@H](Cc2cnc[nH]2)C(=O)N[C@@H](CC(C)C)C(=O)N2CCC[C@H]2C(=O)N[C@@H](Cc2c[nH]c3ccccc23)C(=O)N[C@@H](CO)C(=O)N[C@@H](Cc2c[nH]c3ccccc23)C(=O)N1C [Example 6018] ({CH2CO}-Y[NMeA]NPHLPWSW[NMeNle][NMeNle]RCGG-NH2; thioether N-14) | 0.158 to 4.71 | 0.385 to 6.74
4 | CCCC[C@H]1C(=O)N(C)[C@@H](CCCC)C(=O)N[C@@H](CCCNC(=N)N)C(=O)N[C@H](C(=O)NCC(N)=O)CSCC(=O)N[C@@H](Cc2ccc(O)cc2)C(=O)N(C)[C@@H](C)C(=O)N[C@@H](CC(N)=O)C(=O)N2CCC[C@H]2C(=O)N[C@@H](CN)C(=O)N[C@@H](CCC(N)=O)C(=O)N2C[C@H](O)C[C@H]2C(=O)N[C@@H](Cc2c[nH]c3ccccc23)C(=O)N[C@@H](CO)C(=O)N[C@@H](Cc2csc3ccccc23)C(=O)N1C [Example 6023] ({CH2CO}-Y[NMeA]NP[Dap]Q[Hyp]WS[Bta][NMeNle][NMeNle]RCG-NH2; thioether N-14) | 0.158 to 4.71 | 6.76 to 30.3
5 | CCCC[C@H]1C(=O)N(C)[C@@H](CCCC)C(=O)N[C@@H](CC(C)C)C(=O)N[C@H](C(=O)NCC(N)=O)CSCC(=O)N[C@@H](Cc2ccc(O)cc2)C(=O)N(C)[C@@H](C)C(=O)N[C@@H](CC(=O)O)C(=O)N2CCC[C@H]2C(=O)N[C@@H](Cc2cnc[nH]2)C(=O)N[C@@H](CCC(=O)O)C(=O)N2C[C@H](O)C[C@H]2C(=O)N[C@@H](Cc2c[nH]c3ccccc23)C(=O)N[C@@H](CO)C(=O)N[C@@H](Cc2c[nH]c3ccccc23)C(=O)N1C [Example 6026] ({CH2CO}-Y[NMeA]DPHE[Hyp]WSW[NMeNle][NMeNle]LCG-NH2; thioether N-14) | 0.158 to 4.71 | 0.385 to 6.74

Results, then the compound that gave them:

Row | IC50 [1] [nM] | IC50 (Human PD-L1/PD-1) [nM] | Compound
6 | 0.158 to 4.71 | 0.385 to 6.74 | CCCC[C@H]1C(=O)N(C)[C@@H](CCCC)C(=O)N[C@@H](CCCNC(=N)N)C(=O)N[C@H](C(=O)NCC(=O)N[C@@H](C)C(N)=O)CSCC(=O)N[C@@H](Cc2ccc(O)cc2)C(=O)N(C)[C@@H](C)C(=O)N[C@@H](CC(N)=O)C(=O)N2CCC[C@H]2C(=O)N[C@@H](Cc2cnc[nH]2)C(=O)N[C@@H](CC(C)C)C(=O)N2C[C@H](O)C[C@H]2C(=O)N[C@@H](Cc2c[nH]c3ccccc23)C(=O)N[C@@H](CO)C(=O)N[C@@H](Cc2c[nH]c3ccccc23)C(=O)N1C [Example 6019] ({CH2CO}-Y[NMeA]NPHL[Hyp]WSW[NMeNle][NMeNle]RCGA-NH2; thioether N-14)
7 | 0.158 to 4.71 | 0.385 to 6.74 | CCCC[C@H]1C(=O)N(C)[C@@H](CCCC)C(=O)N[C@@H](CCCNC(=N)N)C(=O)N[C@H](C(=O)NCC(=O)NCC(=O)NCC(N)=O)CSCC(=O)N[C@@H](Cc2ccc(O)cc2)C(=O)N(C)[C@@H](C)C(=O)N[C@@H](CC(N)=O)C(=O)N2CCC[C@H]2C(=O)N[C@@H](Cc2cnc[nH]2)C(=O)N[C@@H](CC(C)C)C(=O)N2CCC[C@H]2C(=O)N[C@@H](Cc2c[nH]c3ccccc23)C(=O)N[C@@H](CO)C(=O)N[C@@H](Cc2c[nH]c3ccccc23)C(=O)N1C [Example 6020] ({CH2CO}-Y[NMeA]NPHLPWSW[NMeNle][NMeNle]RCGGG-NH2; thioether N-14)
8 | 0.158 to 4.71 | 0.385 to 6.74 | CCCC[C@H]1C(=O)N(C)[C@@H](CCCC)C(=O)N[C@@H](CCCNC(=N)N)C(=O)N[C@H](C(=O)NCC(N)=O)CSCC(=O)N[C@@H](Cc2ccc(O)cc2)C(=O)N(C)[C@@H](C)C(=O)N[C@@H](CC(N)=O)C(=O)N2CCC[C@H]2C(=O)N[C@@H](CN)C(=O)N[C@@H](CCC(N)=O)C(=O)N2CCC[C@H]2C(=O)N[C@@H](Cc2c[nH]c3ccccc23)C(=O)N[C@@H](CO)C(=O)N[C@@H](Cc2c[nH]c3ccccc23)C(=O)N1C [Example 6021] ({CH2CO}-Y[NMeA]NP[Dap]QPWSW[NMeNle][NMeNle]RCG-NH2; thioether N-14)
9 | 0.158 to 4.71 | 0.385 to 6.74 | CCCC[C@H]1C(=O)N(C)[C@@H](CCCC)C(=O)N[C@@H](CCCNC(=N)N)C(=O)N[C@H](C(=O)NCC(N)=O)CSCC(=O)N[C@@H](Cc2ccc(O)cc2)C(=O)N(C)[C@@H](C)C(=O)N[C@@H](CC(N)=O)C(=O)N2CCC[C@H]2C(=O)N[C@@H](Cc2cnc[nH]2)C(=O)N[C@@H](CC(C)C)C(=O)N2C[C@H](C#N)C[C@H]2C(=O)N[C@@H](Cc2c[nH]c3ccccc23)C(=O)N[C@@H](CO)C(=O)N[C@@H](Cc2c[nH]c3ccccc23)C(=O)N1C [Example 6022]
10 | 0.158 to 4.71 | 0.385 to 6.74 | CCCC[C@H]1C(=O)N(C)[C@@H](CCCC)C(=O)N[C@@H](C)C(=O)N[C@H](C(=O)NCC(N)=O)CSCC(=O)N[C@@H](Cc2ccc(O)cc2)C(=O)N(C)[C@@H](C)C(=O)N[C@@H](CC(=O)O)C(=O)N2CCC[C@H]2C(=O)N[C@@H](Cc2cnc[nH]2)C(=O)N[C@@H](CCC(N)=O)C(=O)N2CCC[C@H]2C(=O)N[C@@H](Cc2c[nH]c3ccccc23)C(=O)N[C@@H](CO)C(=O)N[C@@H](Cc2c[nH]c3ccccc23)C(=O)N1C [Example 6024] ({CH2CO}-Y[NMeA]DPHQPWSW[NMeNle][NMeNle]ACG-NH2; thioether N-14)
11 | 0.158 to 4.71 | 0.385 to 6.74 | CCCC[C@H]1C(=O)N(C)[C@@H](CCCC)C(=O)N[C@@H](CC(C)C)C(=O)N[C@H](C(=O)NCC(N)=O)CSCC(=O)N[C@@H](Cc2ccc(O)cc2)C(=O)N(C)[C@@H](C)C(=O)N[C@@H](CC(N)=O)C(=O)N2CCC[C@H]2C(=O)N[C@@H](Cc2cnc[nH]2)C(=O)N[C@@H](CC(C)C)C(=O)N2C[C@H](O)C[C@H]2C(=O)N[C@@H](Cc2c[nH]c3ccccc23)C(=O)N[C@@H](CO)C(=O)N[C@@H](Cc2c[nH]c3ccccc23)C(=O)N1C [Example 6025]
